The text below walks through data of publication PMC10375784, “Synthesis of phthalazine-based derivatives as selective anti-breast cancer agents through EGFR-mediated apoptosis: in vitro and in silico studies” (BMC Chemistry, 2023).

Where two headings read alike, the source gives them in different places.

For one data set, the system named is VEGFR‐2. The settings on record: cited from earlier work.
A further data set concerns MCF-7 cells. The data set is described as follows: MTT cytotoxicity assay, MCF-7. The settings on record: Homo sapiens, MCF7, 48 h, three independent trials, read-out: IC50 (μM) ± SD MCF-7. It counts as cell-based. How it is done:
(§1) MCF-7, HepG2 cancer cells and WISH normal cells were obtained from the National Cancer Institute in Cairo, Egypt, they were cultured in complete media of RPMI and DMEM, respectively at 5% carbon dioxide and 37 °C following standard tissue culture work. The cells were grown in “10% fetal bovine serum (FBS) and 1% penicillin–streptomycin” in 96-multiwell plate. All the synthesized compounds were screened for their cytotoxicity using 20 µL of MTT solution (Promega, USA) for 48 hours using untreated and treated cells with concentrations of (0.01, 0.1, 1, 10, and 100 µM) for 48 h. The plate was cultured for 3 h. Percentage of cell viability was calculated following this equation: 100-(ASample/AControl)X100 . An ELISA microplate reader was used to measure the absorbance at 690 nm to calculate the viability versus concentration, and the IC50 value using GraphPad prism software.

In data set [1] the test system is MDA-MB-231 cells. The data set is described as follows: MTT cytotoxicity assay, MDA-MB-231. It counts as cell-based.
The subject of data set [2] is breast MCF-7 and MDA-MB-231 cancer cell lines. Kind of data set: SAR ranking of cytotoxicity (from Table 1). It counts as cell-based. The settings on record: Fig. 4, SAR summary.
Data set [3] shares this test system. Kind of data set: SAR ranking of cytotoxicity (from Table 1). The settings on record: based on Table 1; cell line not stated, order follows MCF-7 values. As for the experimental part:
as §1

A short description of data set [4]: MTT cytotoxicity assay, normal breast cells MCF-10A. It counts as cell-based. The following applies: human; MCF-10A normal breast cells, highest concentration; read-out: percentage of cell viability at the highest concentration.
Another data set has as its system MCF-10A cells. The data set is described as above. Format: cell-based. The settings on record: Homo sapiens, MCF-10A; MTT, 48 h, normal breast cells; read-out: IC50 (μM) ± SD MCF-10A.
Another data set addresses T1, EGFR (Homo sapiens, UniProt P00533).
T1 construct: purchased BPS Bioscience Corporation 40321
The data set is described as follows: EGFR enzyme inhibition (BPS Bioscience kit, ELISA). It counts as biochemical. The settings on record: three independent replicates; for IC50: five concentrations, read-out: EGFR IC50 [nM] ± SD. How it is done:
The luminescence was measured with a microplate reader at 450 nm by ELISA Reader (PerkinElmer). Inhibition percentage was calculated following this equation: 100-[Acontrol/Atreated-Control)] , IC50 was determined using GraphPad prism7 using inhibition curves at five different concentrations of each compound.

Data set [5] concerns MDA-MB-231 cells. Kind of data set: Flow cytometry Annexin V/PI apoptosis/necrosis assessment. The settings on record: MDA-MB-231, treated at IC50 0.57 μM, 48 h. Format: cell-based. As for the experimental part:
MDA-MB-231 cells were incubated overnight in 6-well culture plates (3–5 × 10^5 cells/well) and then treated with the IC50 values for 48 h with compound 12d. After that, the cells were incubated in a 100 µL solution of Annexin binding buffer "25 mM CaCl2, 1.4 M NaCl, and 0.1 M Hepes/NaOH, pH 7.4" in the dark for 30 min with "Annexin V-FITC solution (1:100) and propidium iodide (PI) at a concentration equivalent to 10 µg/mL." The labeled cells were then extracted using the Cytoflex FACS machine. CytExpert software was used to analyze the data.

The mark [6] stands for this setting: Homo sapiens, MDA-MB-231, MTT, 48 h, three independent trials, read-out: IC50 (μM) ± SD MDA-MB-231.
Where [7] appears, read: Fig. 3, MTT, 100 µM to 0.01 µM, 48 h, cell line not given, they match MDA-MB-231.
[8] abbreviates: Homo sapiens, Fig. 3, MTT, 100 µM to 0.01 µM, 48 h, cell line not given, they match MDA-MB-231, read-out: IC50 (Fig. 3 curve fit).

T1 sequence (P00533 25-1210): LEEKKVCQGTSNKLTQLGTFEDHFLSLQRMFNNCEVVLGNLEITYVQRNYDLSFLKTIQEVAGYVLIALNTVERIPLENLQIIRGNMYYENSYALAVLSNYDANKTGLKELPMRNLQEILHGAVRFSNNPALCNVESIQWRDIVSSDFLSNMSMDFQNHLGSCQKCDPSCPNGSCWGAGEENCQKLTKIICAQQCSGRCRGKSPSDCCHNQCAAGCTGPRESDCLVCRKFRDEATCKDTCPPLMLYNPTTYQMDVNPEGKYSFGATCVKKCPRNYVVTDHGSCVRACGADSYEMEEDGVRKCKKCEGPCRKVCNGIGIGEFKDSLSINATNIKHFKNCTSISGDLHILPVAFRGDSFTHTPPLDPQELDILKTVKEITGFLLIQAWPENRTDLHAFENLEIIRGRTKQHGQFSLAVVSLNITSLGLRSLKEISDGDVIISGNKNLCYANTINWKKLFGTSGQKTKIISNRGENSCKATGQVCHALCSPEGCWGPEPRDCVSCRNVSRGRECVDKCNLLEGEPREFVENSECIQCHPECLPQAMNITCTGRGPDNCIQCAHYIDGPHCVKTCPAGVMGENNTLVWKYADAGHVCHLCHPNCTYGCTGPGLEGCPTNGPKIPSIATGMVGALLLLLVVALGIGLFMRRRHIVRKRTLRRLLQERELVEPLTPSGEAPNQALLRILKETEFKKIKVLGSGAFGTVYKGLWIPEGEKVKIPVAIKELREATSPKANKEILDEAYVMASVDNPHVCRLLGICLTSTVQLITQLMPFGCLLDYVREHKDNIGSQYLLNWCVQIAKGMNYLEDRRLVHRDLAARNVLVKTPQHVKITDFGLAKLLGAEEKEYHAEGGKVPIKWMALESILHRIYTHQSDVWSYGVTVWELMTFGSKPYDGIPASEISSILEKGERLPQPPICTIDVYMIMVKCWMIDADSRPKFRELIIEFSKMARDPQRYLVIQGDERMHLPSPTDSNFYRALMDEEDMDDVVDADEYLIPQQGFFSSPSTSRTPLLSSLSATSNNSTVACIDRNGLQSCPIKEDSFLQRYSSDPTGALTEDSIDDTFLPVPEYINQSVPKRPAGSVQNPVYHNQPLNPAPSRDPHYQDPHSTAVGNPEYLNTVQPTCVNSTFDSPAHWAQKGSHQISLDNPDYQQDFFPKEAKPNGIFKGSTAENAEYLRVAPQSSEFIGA

For the compound `Cc1ccc(Nc2nnc(Cc3ccncc3)c3ccccc23)cc1Br` [AAC789], the 50% inhibitory concentration (IC50) in the data set on VEGFR‐2 was 20 nM.

The compound `O=C(Cn1nc(Cc2ccccc2)c2ccccc2c1=O)NCc1ccccc1` [Compound 6a, 2-(4-benzyl-1-oxophthalazin-2(1H)-yl)-N-benzyl acetamide] displayed a melting point of 174 to 176 °C. The IC50 in the data set with MCF-7 cells is 18.6 ± 0.69 µM. Further, in the data set on MDA-MB-231 cells [1] (setting [6]), the IC50 worked out at 19.8 ± 0.74 µM. For the same compound, the “level of cytotoxic activity (Fig. 4)” value in data set [2] was “Third level activity (Poor cytotoxicity)”.

For `C=CCNC(=O)Cn1nc(Cc2ccccc2)c2ccccc2c1=O` [Compound 6f, 2-(4-benzyl-1-oxophthalazin-2(1H)-yl)-N-allyl acetamide], the melting point was 164 to 166 °C. Further, in the data set on MCF-7 cells, the IC50 is 23.1 ± 0.94 µM. Also, in the data set on MDA-MB-231 cells [1] (setting [6]), the IC50 was at least 50 µM. The “level of cytotoxic activity (Fig. 4)” value in data set [2] is “Third level activity (Poor cytotoxicity)”.

For the compound `O=C(Cn1nc(Cc2ccccc2)c2ccccc2c1=O)N1CCCCC1` [Compound 6g, 4-benzyl-2-(2-oxo-2-(piperidin-1-yl)ethyl) phthalazin-1(2H)-one], the melting point lay within 192 to 194 °C.

On to `O=C(Cn1nc(Cc2ccccc2)c2ccccc2c1=O)N1CCOCC1` [Compound 6h, 4-benzyl-2-(2-morpholino-2-oxoethyl) phthalazin-1(2H)-one], for which the melting point lay in the range of 210 to 212 °C. The IC50 with MCF-7 cells amounted to 17.3 ± 0.31 µM. The IC50 with MDA-MB-231 cells [1] (setting [6]) is 21.3 ± 0.64 µM. For the same compound, the “level of cytotoxic activity (Fig. 4)” value in data set [2] is “Third level activity (Poor cytotoxicity)”.

For `COC(=O)CNC(=O)Cn1nc(Cc2ccccc2)c2ccccc2c1=O` [Compound 7a, methyl (2-(4-benzyl-1-oxophthalazin-2(1H)-yl)acetyl) glycinate], the IC50 was at least 50 µM in the data set on MCF-7 cells and 26.5 ± 0.79 µM in the data set with MDA-MB-231 cells [1] (setting [6]).

Compound `NNC(=O)CNC(=O)Cn1nc(Cc2ccccc2)c2ccccc2c1=O` [Compound 8a, 2-(4-benzyl-1-oxophthalazin-2(1H)-yl)-N-(2-hydrazineyl-2-oxoethyl) acetamide] came in with a melting point of 202 to 204 °C. Further, the IC50 in the data set with MCF-7 cells is 31.2 ± 1.01 µM. In the data set on MDA-MB-231 cells [1] (setting [6]), the IC50 amounted to 1.34 ± 0.13 µM.

The compound `O=C(CNC(=O)Cn1nc(Cc2ccccc2)c2ccccc2c1=O)NCc1ccccc1` [Compound 10a, N-benzyl-2-(2-(4-benzyl-1-oxophthalazin-2(1H)-yl)acetamido) acetamide] yielded a melting point of 186 to 188 °C. The IC50 with MCF-7 cells was at least 50 µM. Further, in the data set with MDA-MB-231 cells [1] (setting [6]), the IC50 is 6.4 ± 0.18 µM.

For the compound `C=CCNC(=O)CNC(=O)Cn1nc(Cc2ccccc2)c2ccccc2c1=O` [Compound 10f, N-allyl-2-(2-(4-benzyl-1-oxophthalazin-2(1H)-yl)acetamido) acetamide], the melting point was 188 to 190 °C. For the same compound, the IC50 in the data set with MCF-7 cells is 15.4 ± 0.28 µM. The “order of cytotoxic activity (SAR)” value in data set [3] is listed as “moderate cytotoxicity (IC50 ≤ 20 μM)”. The IC50 with MDA-MB-231 cells [1] (setting [6]) is 8.6 ± 0.1 µM. Further, in data set [2], the “level of cytotoxic activity (Fig. 4)” value was “Second level activity (Moderate cytotoxicity)”.

`O=C(Cn1nc(Cc2ccccc2)c2ccccc2c1=O)NCC(=O)N1CCOCC1` [Compound 10h, 2-(4-benzyl-1-oxophthalazin-2(1H)-yl)-N-(2-morpholino-2-oxoethyl) acetamide] came in with a melting point of 148 to 150 °C. Moreover, the IC50 in the data set on MCF-7 cells is 16.4 ± 0.31 µM. Also, in data set [3], the “order of cytotoxic activity (SAR)” value is on record as “moderate cytotoxicity (IC50 ≤ 20 μM)”. In addition, the IC50 in the data set on MDA-MB-231 cells [1] (setting [6]) was found to be 2.3 ± 0.1 µM. In [2], the “level of cytotoxic activity (Fig. 4)” value is “Second level activity (Moderate cytotoxicity)”.

Consider `COC(=O)CNC(=O)CNC(=O)Cn1nc(Cc2ccccc2)c2ccccc2c1=O` [Compound 11a, methyl (2-(4-benzyl-1-oxophthalazin-2(1H)-yl)acetyl) glycyl glycinate], for which the melting point was in the range of 162 to 164 °C. Also, the IC50 in the data set with MCF-7 cells came out at 11.3 ± 0.29 µM. In addition, in [3], the “order of cytotoxic activity (SAR)” value was “moderate cytotoxicity (IC50 ≤ 20 μM)”. Also, the IC50 in the data set with MDA-MB-231 cells [1] (setting [6]) was found to be 7.2 ± 0.3 µM. In addition, the “level of cytotoxic activity (Fig. 4)” value in [2] is on record as “Second level activity (Moderate cytotoxicity)”.

Compound `COC(=O)C(NC(=O)CNC(=O)Cn1nc(Cc2ccccc2)c2ccccc2c1=O)C(C)C` (stereo not shown) [Compound 11d, methyl (2-(4-benzyl-1-oxophthalazin-2(1H)-yl)acetyl) glycyl valinate] registered a melting point of 190 to 192 °C. The viability at 48 h, 100 µM in [4] was 11%. Further, the IC50 with MCF-10A cells amounted to 39.4 ± 1.8 µM. Moreover, the IC50 in the data set on MCF-7 cells is 2.1 ± 0.01 µM. On EGFR, the inhibition at 10 µM came out at 92.9 ± 2.08% and the IC50 was found to be 79.6 ± 1.35 nM. Further, in the data set with MDA-MB-231 cells [1] (setting [7]), the “LogIC50 (Fig. 3 curve fit)” value is -0.03564. The half-inhibitory concentration (IC50) with MDA-MB-231 cells [1] (setting [6]) turned out to be 0.92 ± 0.01 µM. Moreover, the IC50 in the data set on MDA-MB-231 cells [1] (setting [8]) worked out at 0.921 µM.

Compound `C/C(=N\NC(=O)CNC(=O)Cn1nc(Cc2ccccc2)c2ccccc2c1=O)c1ccco1` [Compound 12c, (E)-2-(4-benzyl-1-oxophthalazin-2(1H)-yl)-N-(2-(2-(1-(furan-2-yl)ethylidene) hydrazineyl)-2-oxoethyl) acetamide] showed a melting point of 209 to 210 °C. Further, the viability at 48 h, 100 µM in data set [4] was 9.6%. In addition, in the data set on MCF-10A cells, the IC50 stood at 43.6 ± 1.9 µM. In the data set on MCF-7 cells, the IC50 was found to be 1.4 ± 0.05 µM. Further, in data set [3], the “order of cytotoxic activity (SAR)” value was “potent cytotoxicicty (IC50 ≤ 2.5 μM)”. Besides, at EGFR, at 10 µM the inhibition was 96.2 ± 2.04% and the IC50 is 65.4 ± 1.12 nM. The “LogIC50 (Fig. 3 curve fit)” value with MDA-MB-231 cells [1] (setting [7]) came out at 0.2772. The IC50 in the data set on MDA-MB-231 cells [1] (setting [6]) worked out at 1.89 ± 0.04 µM. Further, in the data set on MDA-MB-231 cells [1] (setting [8]), the IC50 was found to be 1.89 µM. Besides, the “level of cytotoxic activity (Fig. 4)” value in data set [2] is listed as “First level activity (Potent cytotoxicity)”.

Regarding `Nc1cc(=O)[nH]n1C(=O)CNC(=O)Cn1nc(Cc2ccccc2)c2ccccc2c1=O` [Compound 12d, N-(2-(5-amino-3-oxo-2,3-dihydro-1H-pyrazol-1-yl)-2-oxoethyl)-2-(4-benzyl-1-oxophthalazin-2(1H)-yl) acetamide], in the data set with MDA-MB-231 cells [5], the “early apoptosis (Q4, AV+/PI−)” value was found to be 24.2%; the “late apoptosis (Q2, AV+/PI+)” value worked out at 18.3%; the “necrosis fold vs control” value is on record as 9.25 fold; the “total apoptosis fold vs control” value worked out at 64.4 fold. The “total apoptotic cell death” value in the data set with MDA-MB-231 cells [5] (control 0.66%) stood at 42.5%. The “necrosis (Q1, AV−/PI+)” value with MDA-MB-231 cells [5] (control 0.67%) came out at 6.2%. In data set [4], the viability at 48 h, 100 µM came to 3%. Moreover, in the data set on MCF-10A cells, the IC50 stood at 41.6 ± 1.8 µM. Besides, the IC50 with MCF-7 cells amounted to 1.9 ± 0.01 µM. Moreover, the “order of cytotoxic activity (SAR)” value in [3] is reported as “potent cytotoxicicty (IC50 ≤ 2.5 μM)”. Moreover, on EGFR, the inhibition at 10 µM came to 97.6 ± 2.49% and the IC50 was found to be 21.4 ± 0.67 nM. Further, the “LogIC50 (Fig. 3 curve fit)” value in the data set on MDA-MB-231 cells [1] (setting [7]) was -0.2373. Also, the IC50 in the data set on MDA-MB-231 cells [1] (setting [6]) came to 0.57 ± 0.09 µM. In addition, the IC50 in the data set with MDA-MB-231 cells [1] (setting [8]) is 0.579 µM. Besides, in the data set with MDA-MB-231 cells [1] (MDA-MB-231, highest concentration (range 100 µM to 0.01 µM), 48 h), the “cell growth inhibition at the highest concentration” value was determined as 98.2%. For the same compound, in data set [2], the “level of cytotoxic activity (Fig. 4)” value is “First level activity (Potent cytotoxicity)”.

In the case of `C#Cc1cccc(Nc2ncnc3cc(OCCOC)c(OCCOC)cc23)c1` [Erlotinib, reference compound], the IC50 with MCF-10A cells is 30.9 ± 1.8 µM; in the data set on MCF-7 cells it was 1.32 ± 0.04 µM; in the data set on MDA-MB-231 cells [1] (Homo sapiens, MDA-MB-231, 48 h, MTT, three independent trials, read-out: IC50 (μM) ± SD MDA-MB-231) it was 1 µM; with MDA-MB-231 cells [1] (MTT, 48 h, three independent trials, read-out: IC50 (μM) ± SD MDA-MB-231), 1.02 ± 0.1 µM.

On to `Clc1ccc(Nc2nnc(Cc3ccncc3)c3ccccc23)cc1` [Vatalanib], for which, in the data set on VEGFR‐2, the IC50 was […].
